Laboratory results taken from ChEMBL document CHEMBL5465560, “Selectivity Literature for EUbOPEN Chemogenomic Library” (2024).
Changes are numbered by the printed parent chain.

How the values were obtained:
Conditions in all cases: at 10 µM
[1] = target: Mitogen-activated protein kinase 9 (Homo sapiens, UniProt P45984); assay: Selectivity interaction (KinomeScan (DiscoverX)) EUB0000655a MAPK9
[2] = tested on: T1, Receptor-type tyrosine-protein kinase FLT3 (Homo sapiens), P36888 [R834Q]; assay: (§1) Selectivity interaction (KinomeScan (DiscoverX)) EUB0000607a FLT3
T1 sequence (whole entry): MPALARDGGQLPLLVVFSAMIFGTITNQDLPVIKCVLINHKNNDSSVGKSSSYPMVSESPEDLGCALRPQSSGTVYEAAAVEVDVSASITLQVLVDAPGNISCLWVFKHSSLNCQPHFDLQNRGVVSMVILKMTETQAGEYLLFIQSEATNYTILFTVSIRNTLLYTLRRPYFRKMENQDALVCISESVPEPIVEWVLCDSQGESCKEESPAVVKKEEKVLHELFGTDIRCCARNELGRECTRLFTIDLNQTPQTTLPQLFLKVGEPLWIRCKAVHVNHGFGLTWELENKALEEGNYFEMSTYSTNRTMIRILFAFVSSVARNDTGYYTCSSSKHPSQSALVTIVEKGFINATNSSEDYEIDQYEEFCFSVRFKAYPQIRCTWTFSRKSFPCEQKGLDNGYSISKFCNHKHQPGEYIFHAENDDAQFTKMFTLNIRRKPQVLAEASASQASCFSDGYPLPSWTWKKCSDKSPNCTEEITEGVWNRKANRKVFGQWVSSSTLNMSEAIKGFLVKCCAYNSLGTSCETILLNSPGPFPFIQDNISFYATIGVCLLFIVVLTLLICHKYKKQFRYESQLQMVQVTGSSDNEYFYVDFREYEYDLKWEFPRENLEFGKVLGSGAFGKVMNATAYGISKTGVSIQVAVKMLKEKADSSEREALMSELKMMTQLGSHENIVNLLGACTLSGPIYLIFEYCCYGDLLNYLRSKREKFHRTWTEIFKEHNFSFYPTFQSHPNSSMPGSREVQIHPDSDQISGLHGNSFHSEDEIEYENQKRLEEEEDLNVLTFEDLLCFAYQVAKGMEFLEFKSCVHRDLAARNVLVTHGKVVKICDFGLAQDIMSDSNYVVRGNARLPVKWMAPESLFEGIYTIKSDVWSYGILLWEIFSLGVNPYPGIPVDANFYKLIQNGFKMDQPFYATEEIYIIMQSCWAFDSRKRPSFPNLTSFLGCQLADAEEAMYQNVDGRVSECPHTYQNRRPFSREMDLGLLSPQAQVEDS

[3] = target: Receptor-type tyrosine-protein kinase FLT3 (Homo sapiens) (UniProt P36888); assay: as §1
[4] = tested on: T2, Receptor-type tyrosine-protein kinase FLT3 (Homo sapiens), P36888 [D835Y]; assay: as §1
T2 sequence (whole entry): T1 sequence (whole entry) with Q834R, D835Y

[5] = tested on: T3, Receptor-type tyrosine-protein kinase FLT3 (Homo sapiens), P36888 [K663Q]; assay: as §1
T3 sequence (whole entry): T1 sequence (whole entry) with K663Q, Q834R

Mitogen-activated protein kinase 9, sequence (P45984 whole entry, looked up): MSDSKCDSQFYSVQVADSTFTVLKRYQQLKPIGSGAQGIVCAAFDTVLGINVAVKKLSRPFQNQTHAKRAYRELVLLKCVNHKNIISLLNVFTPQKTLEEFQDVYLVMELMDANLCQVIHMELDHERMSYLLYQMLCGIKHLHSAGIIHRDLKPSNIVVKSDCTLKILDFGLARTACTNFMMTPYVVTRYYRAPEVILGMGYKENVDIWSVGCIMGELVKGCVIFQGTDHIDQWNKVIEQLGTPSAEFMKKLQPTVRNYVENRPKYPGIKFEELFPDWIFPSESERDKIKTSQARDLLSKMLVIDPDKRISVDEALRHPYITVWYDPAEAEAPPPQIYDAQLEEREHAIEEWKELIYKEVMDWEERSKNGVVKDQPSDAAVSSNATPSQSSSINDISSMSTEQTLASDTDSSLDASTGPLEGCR

| SMILES | % of control [1] [%] | % of control [2] [%] | % of control [3] [%] | % of control [4] [%] | % of control [5] [%] |
| --- | --- | --- | --- | --- | --- |
| CN(C)CCOc1ccc(-c2nc(-c3ccncc3)c(-c3ccc4c(c3)CC/C4=N\O)[nH]2)cc1 | 5.1 | – | – | – | – |
| CNC(=O)Nc1ccc(-c2nc(N3CC4CCC(C3)O4)c3cnn(C4CCC5(CC4)OCCO5)c3n2)cc1 | – | 79 | 75 | 99 | 69 |
